Assay results as given in patent US9388146B2, “Crystalline forms of tyrosine kinase inhibitors and their salts” (Purdue Pharma L.P., priority 2013, dated 2016).
Read-outs that look alike come from different tables or passages of the source.

Assays:
[1] = Rat pharmacokinetics (plasma, LC-MS/MS, non-compartmental analysis); assay type: in vivo; conditions: for bioavailability: oral
Protocol: (§1) Compound I was dosed to nonfasted male CD IGS rats (weighting 180-250 g, Charles River Laboratories) by single intravenous (IV, n=3/group) or oral gavage (PO, n=4/group, including control rat group for drug-free blood and brain collection) administration at a nominal dose levels of 3 mg/kg (IV) or 5 mg/kg (IV) and 10, 50, 100 mg/kg (PO) respectively. Compound was formulated in either DMSO/Solutol® HS 15/phosphate buffered saline, pH 7.4 (PBS) for both IV and PO dosing, or 10% (w/v) Povidone K12 in water for IV dosing or 10% (w/v) Povidone K25 in water for PO dosing, or 18% (w/v) CrosPovidone in water for PO dosing. An intravenous profile was obtained by taking serial or terminal blood samples at 3, 10, 30, 60, 120, 240, 360, 1440 min post dose. An oral profile was obtained by taking serial or terminal blood samples at 10, 30, 60, 120, 240, 360, 480, 1440 min post dose.
(§2) Animals were sedated under general inhalant anesthesia (3% isoflurane) for blood collection by cardiac puncture. Blood aliquots (300-400 μL) were collected in tubes coated with lithium heparin, mixed gently, then kept on ice and centrifuged at 2,500×g for 15 minutes at 4° C., within 1 hour of collection. For control animals, blood was collected by cardiac puncture. The plasma was then harvested and kept frozen at −20° C. until further processing. Plasma Sample Collection from Cannulated Rats. Blood collection was carried out from the jugular vein catheter. Blood aliquots (300-400 μL) were collected in tubes coated with lithium heparin, mixed gently, then kept on ice and centrifuged at 2,500×g for 15 minutes at 4° C., within 1 hour of collection. For control animals, blood was collected by cardiac puncture. The plasma was then harvested and kept frozen at −20° C. until further processing.
(§3) Plasma and brain samples were subjected to quantitative analysis by LC-MS/MS using compound-specific mass transitions. Drug concentration-time profiles were generated and non-compartmental PK analysis (using WinNonlin) used to generate estimates of half-life (T1/2), clearance, volume of distribution (Vss), and oral bioavailability (F %) (Gabriesson, J. and Weiner, D. Pharmacokinetic and Pharmacodynamic Data Analysis: Concepts and Applications. Swedish Pharmaceutical Press. 1997). The concentrations of the test compound in brain (ng/g brain tissue) and in plasma (ng/mL) as well as the ratio of the brain concentration and the plasma concentration at each time point were determined and reported.

TrkB = TrkB (Homo sapiens, UniProt Q16620); assay: PathHunter whole cell functional assay, BDNF stimulated TrkB activation; assay type: cell-based; conditions: triplicate
TrkC = TrkC (Homo sapiens, UniProt Q16288); assay: PathHunter whole cell functional assay, NT3 stimulated TrkC activation; assay type: cell-based; conditions: triplicate
[2] = system: CFA-induced rat inflammatory pain; assay: Rat CFA-induced inflammatory pain model; assay type: in vivo; conditions: 50 μL of 1 mM s.c. into paw 3 hours after CFA, FIG. 1
Protocol: Hyperalgesia was induced by subcutaneously injecting 50 μL of CFA (Sigma-Aldrich, St. Louis, Mo., USA) into the plantar surface of the left hind paw of the rats using a 30-gauge hypodermic needle under sevoflurane anesthesia. The classical signs of inflammation, including edema and redness, for up the last day of tests were recorded. To assess the effect of test article on CFA-induced inflammatory pain, the rats were anesthetized with sevoflurane 3 hours after CFA injection and then injected 50 μL of either 1 mM test article (n=6) or Saline (n=4) subcutaneously (S.C.) into the same site as the CFA injection, using a 30-gauge hypodermic needle under sevoflurane anesthesia, according to published method (Ueda K., et al, J Pharmacol. Sci., 2010; 112(4):438-43). Paw withdrawal latencies (thermal hyperalgesia) are measured before and at […] 2, 4, and 7 days after CFA injection. Mechanical thresholds were also measured in the same way with either Formula 1 compound (n=6) or Saline (n=4) at similar different time points (for example, 1, 3 hour and 3 days). The noxious heat and mechanical thresholds were separately measured in each group of rats. The threshold was measured 3-5 times in each rat and then averaged. Stimulus interval was 5 min.

SNL rats = assay: Spinal nerve ligation (SNL) mono-neuropathic pain model in rat; assay type: in vivo; conditions: oral administration
Protocol: The surgical procedure will be performed according to the method firstly described by Kim and Chung (Kim S H, Chung J M. Pain. 1992; 50(3):355-63.). This procedure will result in tactile allodynia in the left hindpaw. […] The dose-response anti-allodynia effects of test compound: on day 14 after surgery, rats were treated with test article at one of four doses, vehicle or positive control by oral gavage, and PWT was determined by calibrated von Frey filaments at time points of 0 (right before the drug dosing, Pre-Dose Baseline), 0.5, 1, 2, 4 and 6 hr. The anti-allodynia effects of repeated administration of test article: Administration of test article was started on day 7 after surgery, once a day for 7 days. PWT was determined by calibrated von Frey filaments, 2 hour after test article dosing each day. After 7 days dosing, the measurement were continued, every other day without compound dosing for another 7 days. PWT was determined at the time points as given above.

[3] = Rat brain and plasma concentration after IV dosing; assay type: in vivo; conditions: male, CD IGS, dose 3 and 5 mg/kg
Protocol: as §1, §2
Immediately after the blood sampling, rats were decapitated and the whole brains were quickly removed, rinsed with cold saline (0.9% NaCl, g/mL), surface vasculature ruptured, blotted with dry gauze, weighed and kept on ice until further processing within 1 hour of collection. Each brain was homogenized in 3 mL cold phosphate-buffered saline, pH 7.4 for 10 seconds on ice using Power Gen 125. The brain homogenate from each brain was then stored at −20° C. until further processing.
as §3

[4] = Accelerated stability tests by XRPD and Raman; assay type: physicochemical; conditions: 1 week
Protocol: Approximately 2 mg of sample was gently compressed on the XRPD zero back ground single obliquely cut silica sample holder. The sample was then loaded into a D/MAX 2200 X-ray powder diffractometer (Rigaku) or a Philips X-Pert MPD diffractometer and analyzed using the following experimental conditions (Tube anode: Cu; Generator tension: 40 kV; Tube current: 40 mA; Wavelength alpha1: 1.54056 Å; Wavelength alpha2: 1.5444 Å; Start angle [2 theta]: 5; End angle [2 theta]: 50; and Continuous scan). For suspected novel forms a slightly slower scan speed was used over a range of 4-40° 2θ.
Samples were analyzed by a Nicolet Almega XR Dispersive Raman Microscope for its Raman spectrum using the following conditions (Exposure Time: 1.0 s; Acquisition No: 10; Pinhole Size: 25, 50 or 100 μm; Wavelength range: 2000˜300 cm^−1 (single grating); Laser: […] 100% power; Objective: 20×/0.40 or 50×/0.75 (magnifier/numerical aperture number)). Then the measured Raman spectra were corrected by baseline subtraction using the software OMNIC™ v7.3.

CCI rats = assay: Chronic constriction injury (CCI) model of neuropathic pain in rat; assay type: in vivo; conditions: for observed side effects (drowsiness, motor incoordination, abnormality): oral dosing
Text: The CCI model is one of the most commonly used mono-neuropathic pain model firstly described in details by Bennett and Xie (Bennett G J, Xie Y K. Pain. 1988; 33(1):87-107). It mimics important clinical chronic pain symptoms such as mechanical allodynia and thermal hyperalgesia. Chronic constriction injury of the sciatic nerve was produced by tying four loose ligatures around the left sciatic nerve according to the method of Bennett and Xie. […] Calibrated von Frey filaments were used to determine the lowest mechanical (tactile) threshold required to evoke a brisk paw withdrawal reflex in the rat hindpaws. Rats were allowed to acclimatize in wire mesh cages for 15-20 min prior to von Frey testing. Assessment of paw withdrawal thresholds (PWTs) using von Frey filaments was undertaken prior to CCI-surgery (pre-surgery baseline on day 0). Before the drug dosing on day 14, the pre-dose baseline was recorded for each rat. […] Drug-naïve CCI-rats (n=4-6 per group) were used. The oral (PO) gavage vehicle was either 10% (w/v) Povidone K25 in water for PO dosing, or 18% (w/v) CrosPovidone in water for PO dosing, or 0.5% CMC-Na/0.1% Tween 80 in distilled water for PO dosing. The positive control gabapentin was dissolved in the vehicle and orally given at 100 mg/kg (by oral gavage). Test article was dissolved or suspended in the vehicle and orally given at 25, 50, 100 and 150 mg/kg. Each CCI-rat was administered a single oral dose of test article, gabapentin or vehicle control, 2 hours before assessment of PWT.

[5] = male, CD IGS, plasma, IV, 3 mg/kg, mean
[6] = male, CD IGS, plasma, PO, 100 mg/kg, mean

Sequence of TrkC (Q16288 32-839, species assumed): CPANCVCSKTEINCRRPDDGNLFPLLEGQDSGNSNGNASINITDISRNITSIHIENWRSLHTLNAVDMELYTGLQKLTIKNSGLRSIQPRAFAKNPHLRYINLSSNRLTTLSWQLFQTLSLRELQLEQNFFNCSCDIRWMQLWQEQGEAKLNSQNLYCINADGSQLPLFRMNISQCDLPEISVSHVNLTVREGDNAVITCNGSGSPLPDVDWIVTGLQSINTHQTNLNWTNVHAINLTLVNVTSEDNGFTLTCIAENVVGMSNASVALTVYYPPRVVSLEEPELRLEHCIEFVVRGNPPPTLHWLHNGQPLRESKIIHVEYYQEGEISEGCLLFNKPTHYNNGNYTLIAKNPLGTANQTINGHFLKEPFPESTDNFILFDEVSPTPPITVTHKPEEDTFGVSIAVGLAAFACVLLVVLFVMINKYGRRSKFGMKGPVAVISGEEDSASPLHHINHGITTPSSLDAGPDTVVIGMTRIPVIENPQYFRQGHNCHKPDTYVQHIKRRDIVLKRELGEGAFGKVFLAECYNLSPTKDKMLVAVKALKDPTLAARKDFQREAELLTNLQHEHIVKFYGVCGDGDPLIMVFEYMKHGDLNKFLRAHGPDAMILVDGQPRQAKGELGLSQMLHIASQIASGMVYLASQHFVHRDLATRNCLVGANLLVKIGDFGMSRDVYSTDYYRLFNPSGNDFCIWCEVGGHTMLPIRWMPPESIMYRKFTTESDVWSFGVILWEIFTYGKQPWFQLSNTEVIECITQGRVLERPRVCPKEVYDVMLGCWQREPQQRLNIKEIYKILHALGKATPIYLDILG
Sequence of TrkB (Q16620 32-822, species assumed): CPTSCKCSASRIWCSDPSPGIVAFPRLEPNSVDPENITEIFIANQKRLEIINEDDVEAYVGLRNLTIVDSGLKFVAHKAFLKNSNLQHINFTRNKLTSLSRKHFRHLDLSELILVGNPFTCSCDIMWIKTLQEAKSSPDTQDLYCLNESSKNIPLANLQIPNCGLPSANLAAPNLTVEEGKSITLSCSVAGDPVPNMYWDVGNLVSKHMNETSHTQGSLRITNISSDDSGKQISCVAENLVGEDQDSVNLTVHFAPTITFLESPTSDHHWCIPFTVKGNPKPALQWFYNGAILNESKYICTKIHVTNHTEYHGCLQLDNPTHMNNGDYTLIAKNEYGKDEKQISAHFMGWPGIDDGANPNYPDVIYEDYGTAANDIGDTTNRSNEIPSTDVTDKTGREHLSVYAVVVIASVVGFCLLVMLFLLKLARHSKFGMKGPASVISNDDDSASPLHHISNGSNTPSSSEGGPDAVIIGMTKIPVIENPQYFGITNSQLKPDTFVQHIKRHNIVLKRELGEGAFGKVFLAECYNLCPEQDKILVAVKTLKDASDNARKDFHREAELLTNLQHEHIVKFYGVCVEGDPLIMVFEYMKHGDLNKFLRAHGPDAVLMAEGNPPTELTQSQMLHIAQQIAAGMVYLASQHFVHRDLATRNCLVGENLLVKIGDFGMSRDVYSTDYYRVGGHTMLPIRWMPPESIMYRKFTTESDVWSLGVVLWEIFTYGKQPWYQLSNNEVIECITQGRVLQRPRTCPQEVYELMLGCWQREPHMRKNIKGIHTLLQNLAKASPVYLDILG

Compound: O=C(O)c1ccc(Nc2cc(N3CCN(C4CCCCC4)CC3)c3noc4c3c2C(=O)c2ccccc2-4)cc1 [Compound 701, 4-((3-(4-cyclohexylpiperazin-1-yl)-6-oxo-6H-anthra[1,9-cd]isoxazol-5-yl)amino)benzoic acid]
- bioavailability ([1]; male, CD IGS, plasma): < 20%

Compound: O=C(O)c1ccc(Nc2cc(N3CCN(C4CCCCC4)CC3)c3noc4c3c2C(=O)c2ccccc2-4)cc1 [Compound C]
- IC50 (TrkB): > 10 µM
- IC50 (TrkC): > 10 µM

Compound: O=C([O-])c1ccc(Nc2cc(N3CCN(C4CCCCC4)CC3)c3noc4c3c2C(=O)c2ccccc2-4)cc1.[Na+] [Compound I, Sodium 4-((3-(4-cyclohexylpiperazin-1-yl)-6-oxo-6H-anthra[1,9-cd]isoxazol-5-yl)amino)benzoate]
- analgesic effect (thermal hyperalgesia / mechanical threshold) [2]: efficacious in relieving the pain
- effect on mechanical allodynia (PWT, von Frey) (SNL rats): significantly reduced mechanical allodynia
- F ([1]; PO, 100 mg/kg, mean): ~100%
- clearance [1, 5]: 4 mL/min/kg
- half-life [1, 5]: 1.08 h
- Vd ([1]; male, CD IGS, plasma, IV, 3 mg/kg, mean, read-out: Vss): 0.287 L/kg
- Cmax [1, 6]: 66000 ng/mL
- half-life [1, 6]: 2.07 h
- bioavailability ([1]; male, CD IGS, plasma): 90 to 100%
- concentration at 30 min ([3]; brain, 30 min, read-out: Brain concentration): 153 ng/g
- concentration at 60 min ([3]; brain, 60 min, read-out: Brain concentration): 120 ng/g
- concentration at 180 min ([3]; brain, 180 min, read-out: Brain concentration): 23 ng/g
- Kp at 30 min ([3]; brain/plasma, 30 min, read-out: Ratio Brain/Plasma): 0.014
- Kp at 60 min ([3]; brain/plasma, 60 min, read-out: Ratio Brain/Plasma): 0.018
- Kp at 180 min ([3]; brain/plasma, 180 min, read-out: Ratio Brain/Plasma): 0.019
- concentration at 30 min ([3]; plasma, 30 min, read-out: Plasma Concentration): 11300 ng/mL
- concentration at 60 min ([3]; plasma, 60 min, read-out: Plasma Concentration): 8160 ng/mL
- concentration at 180 min ([3]; plasma, 180 min, read-out: Plasma Concentration): 1830 ng/mL
- stability as measured by XRPD and Raman ([4]; 40° C./75% RH): no instability
- stability as measured by XRPD and Raman ([4]; 80° C.): no instability
- observed side effects (drowsiness, motor incoordination, abnormality) (CCI rats): no such effect or other abnormality was observed
- more effective in suppressing mechanical allodynia compared to gabapentin (CCI rats; same oral dose of 100 mg/kg): about 100%
- effect on mechanical allodynia (PWT, von Frey) (CCI rats; single oral dose 25, 50, 100 and 150 mg/kg, 2 hours before assessment, FIG. 2): significantly reduced mechanical allodynia

Compound: O=C([O-])c1ccc(Nc2cc(N3CCN(C4CCCCC4)CC3)c3noc4c3c2C(=O)c2ccccc2-4)cc1.[Na+] [Form A, Sodium 4-((3-(4-cyclohexylpiperazin-1-yl)-6-oxo-6H-anthra[1,9-cd]isoxazol-5-yl)amino)benzoate]
- stability of the polymorphic form ([4]; 40° C./75% RH and 80° C.): stable polymorphic form

Compound: NCC1(CC(=O)O)CCCCC1 [gabapentin, reference compound]
- observed side effects (drowsiness, motor incoordination, abnormality) (CCI rats): drowsiness or motor incoordination
